What was measured:
Assay type in all cases: physicochemical
[1] = Transmittance and 20% shift (incident angle dependency) of NIR filter having selected wavelength shielding layer; settings: NIR filter 110: dye 3.0 parts by mass per 100 of polyester resin B-OKP2 (nd(B) 1.64), with selected wavelength shielding layer and antireflection layer
Protocol: In the present filter, the visible light transmittance is secured sufficiently by satisfying the condition (iv-1), and moreover, angle dependency which the dielectric multilayer film has is solved, and the light shielding property of the near-infrared region is secured sufficiently in a wide wavelength region without being affected by the influence of the incident angle by satisfying the conditions (iv-2) and (iv-3). • Here, in the condition (iv-3), the angle dependency is evaluated by using a shift of wavelength in 20% transmittance when the incident angle is 0 degree and when it is 30 degrees as an index.
Transmittance of the NIR filter of Example 110 was measured as transmittance of light incident from a direction orthogonal to a main surface, that is, light with an incident angle of 0 degree and transmittance of light incident from a direction making an angle of 30 degrees relative to a line orthogonal to the main surface, that is, light with an incident angle of 30 degrees by using an ultraviolet visible light spectrophotometer (U-4100 type spectrophotometer made by Hitachi High-Technologies Corporation), so as to obtain a transmission spectrum. A 20% shift (30 degrees) is a difference between a value of a wavelength with transmittance of 20% of light with an incident angle of 0 degree (indicated as “λ20-0”) and a value of a wavelength with transmittance of 20% of light with an incident angle of 30 degrees (indicated as “λ20-30”).
Moreover, a transmission spectrum of light with an incident angle of 40 degrees was obtained similarly. Further, the difference between a value of a wavelength with transmittance of 20% of light with an incident angle of 0 degree (λ20-0) and a value of a wavelength with transmittance of 20% of light with an incident angle of 40 degrees (indicated as “λ20-40”) was obtained as a 20% shift (40 degrees).
The near-infrared absorbing layer was formed on a glass plate similarly to Example 7 except that a glass plate on which the selected wavelength shielding layer is formed was used on a face opposite to an application face of the coating liquid for forming the near-infrared absorbing layer. Moreover, the antireflection layer was formed on the near-infrared absorbing layer, so as to obtain the NIR filter 110. The film thickness in the selected wavelength shielding layer in its entirety was approximately 8.9 μm, and the film thickness in the antireflection layer in its entirety was approximately 0.34 μm. The transmittance of the obtained NIR filter 110 was measured, and 20% shifts (30 degrees) and (40 degrees) were obtained. Results thereof are presented in Table 9 together with structures of the near-infrared absorbing layer. FIG. 6 illustrates transmission spectra of light with incident angles of 0 degree, 30 degrees and 40 degrees of the wavelength region of 660 nm to 690 nm in the NIR filter 110 by a solid line, a dotted line and a dashed line, respectively.

[2] = Absorption characteristics: transmission spectrum of near-infrared absorbing layer of NIR filter (UV-visible spectrophotometer)
Protocol: Further, the transmittance of the near-infrared absorbing layer can be measured by using an ultraviolet visible light spectrophotometer. For example, when the near-infrared absorbing layer is provided on a glass substrate, the transmittance is calculated by subtracting the transmittance of only the glass substrate. Note that the transmittance of light of the near-infrared absorbing layer refers to, unless otherwise stated, a ratio to light incident from a direction orthogonal to a main surface of a sample, the ratio of this light traveling straight inside the sample and transmitted to an opposite side. Further, when the transmittance is measured by making light incident from a direction other than the direction orthogonal to the main surface of the sample in the measurement of transmittance of light, an angle made by a straight line indicating the direction of the incident light to a line orthogonal to the main surface is called an incident angle.
In the condition (ii-3), the value calculated by nd(B)×(λa−λc) (hereinafter, this value may also be described as “Is value”) is a value to be an index indicating steepness of the absorption curve in the vicinity of the boundary between the visible light region and the near-infrared region with respect to a transmission spectrum of the near-infrared absorbing layer. When this value is 115 or less, the absorption curve in the vicinity of the boundary between the visible light region and the near-infrared region is steep with respect to the near-infrared absorbing layer, which can be said as preferable for the NIR filter.
That is, with respect to the transmission spectrum of the near-infrared absorbing layer, the smaller the difference (λa−λc) between the shortest wavelength λa with transmittance of 1% in the region of 650 nm to 800 nm and the wavelength λc with transmittance of 70% on a shorter wavelength side than the λa, the steeper the absorption curve in the vicinity of the boundary between the visible light region and the near-infrared region. Here, λa−λc also depends on a wavelength width having transmittance of 1% or less (λb−λa; λb is the longest wavelength with transmittance of 1% in the wavelength region of 650 nm to 800 nm). Accordingly, in order to compare and evaluate the steepness of the absorption curve in the above region of the transmission spectrum of the near-infrared absorbing layer, λb−λa is fixed to 30 nm. That is, λb−λa of the near-infrared absorbing layer which the present filter has is not limited to 30 nm.
Further, in the Is value, (λa−λc) is multiplied by the refractive index nd(B) of the transparent resin (B) contained in the near-infrared absorbing layer as a coefficient. This is to standardize the difference in steepness among resins.
Regarding transmittance (%/nm) of the NIR filters 1 to 109 obtained above, transmission spectra were measured and calculated by using an ultraviolet visible light spectrophotometer (U-4100 type spectrophotometer made by Hitachi High-Technologies Corporation). Analysis results of transmission spectra of the near-infrared absorbing layers which the NIR filters have are presented in Table 4, Table 5 and Table 6 for the NIR filters 1 to 25, 26 to 51, 52 to 75, respectively, and are presented in Table 7 and Table 8 for the NIR filters 76 to 94, 95 to 109, respectively. In Table 4 to Table 8, the ratios (parts by mass) of dyes to 100 parts by mass of the transparent resin (B) and film thicknesses of the near-infrared absorbing layers are described together.
Further, conditions of preferred transmission spectra of the near-infrared absorbing layers in the present filter and Is values obtained by the formula: nd(B)×(λa-λc) described in above (ii-3) are described in Table 4 to Table 8 together with λa in the condition (ii-1) and λb-λa in the condition (ii-2). Note that values described in Table 4 to Table 8 are values obtained by subtracting transmittance of a glass plate from transmittance of an NIR filter. […]

[3] = Solubility of dye to organic solvent; settings: 50° C., mass % of the dye to the mass of the entire solution; for Solubility to organic solvent: MIBK: methyl isobutyl ketone
Protocol: Regarding the dyes (A11-1) to (A11-10) and (A11-20) to (A11-27) obtained above, solubility to organic solvent was evaluated as follows.
Three kinds of solvents, cyclohexanone, methyl isobutyl ketone (MIBK), toluene, were used as the organic solvent in the solubility test. Note that in Table 3, % is mass % of the dye to the mass of the entire solution. Further, the temperature of each organic solvent in the solubility test was 50° C.

[4] = transparent resin acrylic resin BR50, nd(B) 1.56, film thickness 2.3 μm
[5] = transparent resin polycarbonate EP5000, nd(B) 1.63, film thickness 2.4 μm
[6] = transparent resin polycarbonate SP3810, nd(B) 1.63, film thickness 1.0 μm
[7] = transparent resin polycarbonate SP3810, nd(B) 1.63, film thickness 2.8 μm
[8] = transparent resin polycarbonate SP1516, nd(B) 1.60, film thickness 0.9 μm

CCCCC(CC)C(=O)Nc1cc2c(cc1C1=C([O-])C(=c3cc4c(cc3NC(=O)C(CC)CCCC)=[N+](C(C)C)C(C)C4(C)C)C1=O)C(C)(C)C(C)N2C(C)C (centres unmarked) [Example A11-7]
20% shift 30 degrees (λ20-0-λ20-30) [1]: 1 nm | 20% shift 40 degrees (λ20-0-λ20-40) [1]: 3 nm | 20%-transmittance wavelength of 0-degree incident angle (λ20-0) [1]: 668 nm | 20%-transmittance wavelength of 30-degree incident angle (λ20-30) [1]: 667 nm | 20%-transmittance wavelength of 40-degree incident angle (λ20-40) [1]: 665 nm | Transmittance 420 nm to 620 nm (average) [1]: 88.6% | Transmittance 700 nm to 1100 nm (average) [1]: 0.03% | Transmittance 710 nm to 1100 nm (maximum) [1]: 0.28% | 430 nm to 600 nm Average transmittance [2, 4]: 96.1% | Is value (nd(B)×(λa-λc)) [2, 4]: 101.5 | λa [2, 4]: 695 nm | λa − λc [2, 4]: 65 nm | λb [2, 4]: 715 nm | λb − λa [2, 4]: 30 nm | λc [2, 4]: 630 nm | λmax [2, 4]: 712 nm | 430 nm to 600 nm Average transmittance [2, 5]: 96.9% | Is value (nd(B)×(λa-λc)) [2, 5]: 104.5 | λa [2, 5]: 700 nm | λa − λc [2, 5]: 64 nm | λb [2, 5]: 730 nm | λb − λa [2, 5]: 30 nm | λc [2, 5]: 636 nm | λmax [2, 5]: 715 nm | 430 nm to 600 nm Average transmittance [2, 6]: 95.8% | Is value (nd(B)×(λa-λc)) [2, 6]: 106.3 | λa [2, 6]: 700 nm | λa − λc [2, 6]: 65 nm | λb [2, 6]: 730 nm | λb − λa [2, 6]: 30 nm | λc [2, 6]: 635 nm | λmax [2, 6]: 712 nm | 430 nm to 600 nm Average transmittance [2, 7]: 96.5% | Is value (nd(B)×(λa-λc)) [2, 7]: 104.6 | λa [2, 7]: 700 nm | λa − λc [2, 7]: 64 nm | λb [2, 7]: 730 nm | λb − λa [2, 7]: 30 nm | λc [2, 7]: 636 nm | λmax [2, 7]: 716 nm | Solubility to organic solvent: Cyclohexanone [3]: 10%< mass % | Solubility to organic solvent: MIBK [3]: 3.00% mass % | Solubility to organic solvent: Toluene [3]: 10%< mass %

CCCCCCCCCCCC(=O)Nc1cc2c(cc1C1=C([O-])C(=c3cc4c(cc3NC(=O)CCCCCCCCCCC)=[N+](C)C(C)C4(C)C)C1=O)C(C)(C)C(C)N2C (centres unmarked) [Example A11-25, reference compound]
430 nm to 600 nm Average transmittance [2, 4]: 94.5% | Is value (nd(B)×(λa-λc)) [2, 4]: 129.6 | λa [2, 4]: 688 nm | λa − λc [2, 4]: 83 nm | λb [2, 4]: 718 nm | λb − λa [2, 4]: 30 nm | λc [2, 4]: 605 nm | λmax [2, 4]: 705 nm | 430 nm to 600 nm Average transmittance [2, 5]: 95.5% | Is value (nd(B)×(λa-λc)) [2, 5]: 120.8 | λa [2, 5]: 693 nm | λa − λc [2, 5]: 69 nm | λb [2, 5]: 723 nm | λb − λa [2, 5]: 30 nm | λc [2, 5]: 619 nm | λmax [2, 5]: 710 nm | 430 nm to 600 nm Average transmittance [2, 8]: 95.6% | Is value (nd(B)×(λa-λc)) [2, 8]: 124.8 | λa [2, 8]: 690 nm | λa − λc [2, 8]: 78 nm | λb [2, 8]: 720 nm | λb − λa [2, 8]: 30 nm | λc [2, 8]: 612 nm | λmax [2, 8]: 707 nm | 430 nm to 600 nm Average transmittance [2, 6]: 94.6% | Is value (nd(B)×(λa-λc)) [2, 6]: 122.6 | λa [2, 6]: 693 nm | λa − λc [2, 6]: 75 nm | λb [2, 6]: 723 nm | λb − λa [2, 6]: 30 nm | λc [2, 6]: 618 nm | λmax [2, 6]: 710 nm | 430 nm to 600 nm Average transmittance [2, 7]: 95.3% | Is value (nd(B)×(λa-λc)) [2, 7]: 119.3 | λa [2, 7]: 694 nm | λa − λc [2, 7]: 73 nm | λb [2, 7]: 724 nm | λb − λa [2, 7]: 30 nm | λc [2, 7]: 621 nm | λmax [2, 7]: 710 nm | Solubility to organic solvent: Cyclohexanone [3]: 3.00% mass % | Solubility to organic solvent: MIBK [3]: 1.00% mass % | Solubility to organic solvent: Toluene [3]: 10%< mass %

Source: US10495796B2, “Near-infrared cut filter” (AGC INC., priority 2012, dated 2019)
